Laboratory results published in patent US20240116883A1, “CANNABINOID DERIVATIVES AND THEIR USE THE TREATMENT OF INFLAMMATION AND/OR PAIN AND/OR OBESITY” (Yissum Research Development Company of The Hebrew …, priority 2020, published 2024).

Tests used:
[1] = test system: phenylbenzoquinone writhing; conditions: mice; versus aspirin; cited from earlier work
[2] = test system: TPA induced erythema of mouse ear; conditions: application of a 100 pg/ml solution; cited from earlier work
cannabinoid receptor CB2 = cannabinoid receptor CB2 (Homo sapiens, UniProt P34972); conditions: cited from earlier work
Sequence of cannabinoid receptor CB2 (P34972 whole entry): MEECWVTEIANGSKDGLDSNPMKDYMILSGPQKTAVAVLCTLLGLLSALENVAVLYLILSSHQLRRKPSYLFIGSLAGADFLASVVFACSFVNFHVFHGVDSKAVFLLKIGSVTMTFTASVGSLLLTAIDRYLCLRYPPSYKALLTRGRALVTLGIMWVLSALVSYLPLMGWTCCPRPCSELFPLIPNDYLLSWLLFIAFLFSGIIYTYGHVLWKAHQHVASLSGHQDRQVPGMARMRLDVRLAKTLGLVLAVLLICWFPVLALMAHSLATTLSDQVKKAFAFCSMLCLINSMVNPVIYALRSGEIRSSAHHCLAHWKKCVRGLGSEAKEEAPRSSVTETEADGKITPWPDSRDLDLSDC

[3] = test system: swelling, pain, TNF-alpha; test: biological activity assays of FIGS. 1-4 (swelling, pain, TNF-alpha, weight bearing); assay type: in vivo, mice; conditions: summary of FIGS. 1-4; varied doses, compared to CBD/CBG
Protocol: After an additional 90 minutes, the mice were decapitated, and trunk blood was collected for determination of TNF-α levels. […]
TNF-α determination assay: TNF-α (pg/ml) in cell culture supernatants or in mouse blood plasma was determined by the “sandwich” ELISA technique. ELISA reagents were used according to the manufacturer's protocol (R & D Systems).

| SMILES | analgesic potency compared to aspirin [1] | inhibition of the inflammation response [2] [%] | binding to CB2 (cannabinoid receptor CB2) | anti-inflammatory activity [3] |
| --- | --- | --- | --- | --- |
| C=C(C)[C@@H]1CCC(C)=C[C@H]1c1c(O)cc(CCCCC)cc1O [CBD, Cannabidiol] | much more potent than aspirin | 92 | does not bind | – |
| C=C(C)[C@@H]1CCC(C)=C[C@H]1c1c(O)cc(CCCCC)c(C)c1O [HUM-216, (1′R,2′R)-3,5′-dimethyl-4-pentyl-2′-(prop-1-en-2-yl)-1′,2′,3′,4′-tetrahydro-[1,1′-biphenyl]-2,6-diol] | – | – | – | notable anti-inflammatory activity |
| CCCCCCC(C)(C)c1cc(O)c(C/C=C(\C)CCC=C(C)C)c(OC)c1 [HUM-223, (E)-2-(3,7-dimethylocta-2,6-dien-1-yl)-3-methoxy-5-(2-methyloctan-2-yl)phenol] | – | – | – | notable anti-inflammatory activity |
| CCCCCc1cc(O)c([C@@H]2C=C(C)CC[C@H]2C(C)C)c(O)c1C [HUM-217, (1′S,2′S)-2′-isopropyl-3,5′-dimethyl-4-pentyl-1′,2′,3′,4′-tetrahydro-[1,1′-biphenyl]-2,6-diol] | – | – | – | notable anti-inflammatory activity |
| CCCCCc1cc(O)c(C/C=C(\C)CCC=C(C)C)c(O)c1C [HUM-218, (E)-2-(3,7-dimethylocta-2,6-dien-1-yl)-4-methyl-5-pentylbenzene-1,3-diol] | – | – | – | notable anti-inflammatory activity |
